In US20190350939A1, “CANCER TREATMENT METHOD USING Ni-SOD MIMIC COMPOUND” (NATIONAL CHIAO TUNG UNIVERSITY, priority 2018, published 2019):

Tested on: MiaPaCa-2 cells
Assay: In vivo study, MiaPaCa-2 subcutaneous tumor in nude mice
Conditions: 0.27 mg/kg tail vein injection, 18th day; start 125 mm^3; PBS group 600 mm^3
Method: In an embodiment, mice (BALB/cAnN.Cg-Foxn1nu/CrlNarl mice) are reared until 6 weeks of age, and 1×10^6 of MiaPaCa-2 cells are subcutaneously injected into the right rear leg of the mice. […] The experiment is performed until the 18th day, and the tumor size is measured every 2 days. The measurement formula of the tumor size is as follows: ½ (L×W^2), wherein L represents the longest diameter of the tumor; W represents the shortest diameter of the tumor.

Compound	tumor size [mm^3]
Nc1ccn([C@@H]2O[C@H](CO)[C@@H](O)C2(F)F)c(=O)n1 [Gemzar]	30
COc1cccc2c1C(=O)c1c(O)c3c(c(O)c1C2=O)C[C@@](O)(C(=O)CO)C[C@@H]3O[C@H]1C[C@H](N)[C@H](O)[C@H](C)O1 [Doxorubicin]	64
CC(=O)O[C@@]12CO[C@@H]1C[C@H](O)[C@@]1(C)C(=O)[C@H](O)C3=C(C)[C@@H](OC(=O)[C@H](O)[C@@H](NC(=O)OC(C)(C)C)c4ccccc4)C[C@@](O)([C@@H](OC(=O)c4ccccc4)[C@H]21)C3(C)C [Taxatere]	68
CC[C@@]1(O)C(=O)OCc2c1cc1n(c2=O)Cc2cc3ccccc3nc2-1 [CPT]	52
